Patent US9884063B2, “Amido-substituted azole compounds” (Bayer Pharma Aktiengesellschaft, priority 2014, dated 2018)

biological target: T1, TNKS1 (Homo sapiens, UniProt O95271); test: Modified TNKS1 Assay 3 (BPS kit #80573, biotin-NAD+, 96 well); format: biochemical; conditions: human TNKS1, BPS kit #80573, 96 well
T1 sequence (O95271 1-1327): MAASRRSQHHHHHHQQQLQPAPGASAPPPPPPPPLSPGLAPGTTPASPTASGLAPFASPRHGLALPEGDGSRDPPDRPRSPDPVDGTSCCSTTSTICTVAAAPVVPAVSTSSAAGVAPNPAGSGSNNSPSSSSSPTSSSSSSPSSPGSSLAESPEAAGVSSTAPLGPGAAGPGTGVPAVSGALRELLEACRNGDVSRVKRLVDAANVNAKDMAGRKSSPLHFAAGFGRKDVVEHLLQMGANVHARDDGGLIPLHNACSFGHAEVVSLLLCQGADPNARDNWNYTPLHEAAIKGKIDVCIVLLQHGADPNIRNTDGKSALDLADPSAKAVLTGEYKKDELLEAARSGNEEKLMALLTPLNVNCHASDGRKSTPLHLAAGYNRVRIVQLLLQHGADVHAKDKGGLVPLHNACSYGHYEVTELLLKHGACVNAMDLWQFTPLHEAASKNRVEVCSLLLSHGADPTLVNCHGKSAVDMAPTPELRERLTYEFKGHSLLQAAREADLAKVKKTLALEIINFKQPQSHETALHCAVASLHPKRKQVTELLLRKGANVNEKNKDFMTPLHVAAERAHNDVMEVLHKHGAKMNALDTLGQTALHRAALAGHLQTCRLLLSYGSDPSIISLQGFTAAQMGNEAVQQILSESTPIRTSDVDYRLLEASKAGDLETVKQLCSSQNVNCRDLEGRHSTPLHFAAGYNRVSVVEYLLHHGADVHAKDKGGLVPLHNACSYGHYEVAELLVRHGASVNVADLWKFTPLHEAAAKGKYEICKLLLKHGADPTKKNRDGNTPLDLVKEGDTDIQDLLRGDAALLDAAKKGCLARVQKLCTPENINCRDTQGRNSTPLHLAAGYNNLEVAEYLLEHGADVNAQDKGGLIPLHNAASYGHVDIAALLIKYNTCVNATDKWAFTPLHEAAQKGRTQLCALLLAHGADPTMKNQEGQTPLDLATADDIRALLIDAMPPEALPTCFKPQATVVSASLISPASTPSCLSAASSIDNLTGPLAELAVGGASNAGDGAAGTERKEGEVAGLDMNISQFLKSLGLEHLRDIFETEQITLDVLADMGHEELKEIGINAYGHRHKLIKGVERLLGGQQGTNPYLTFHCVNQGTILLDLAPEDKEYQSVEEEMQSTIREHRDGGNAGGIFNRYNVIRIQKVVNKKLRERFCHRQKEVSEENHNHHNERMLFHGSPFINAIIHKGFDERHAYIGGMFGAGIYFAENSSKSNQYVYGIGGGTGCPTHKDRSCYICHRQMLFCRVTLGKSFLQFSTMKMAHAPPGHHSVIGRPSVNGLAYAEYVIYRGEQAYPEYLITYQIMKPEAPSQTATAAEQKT
Outline: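 Chemiluminescent assay of TNKS1-catalysed ribosylation of a protein substrate with biotin-labelled NAD+, detected via streptavidin-HRP; run per kit protocol. Inhibition lowers the signal, and IC50 is the compound concentration halving the normalised readout.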

Structure (SMILES) | IC50
O=C(Nc1ccc(NC(=O)c2nc[nH]c2C(=O)NCCN2CC[C@@H](F)C2)cc1)c1ccc(F)cc1Cl [Example 231, N^4-{4-[(2-chloro-4-fluorobenzoyl)amino]phenyl}-N^5-{2-[(3R)-3-fluoropyrrolidin-1-yl]ethyl}-1H-imidazole-4,5-dicarboxamide] | 170 nM
CCc1nc(C(=O)Nc2ccc(NC(=O)c3ccc(F)cc3Cl)cc2)c(C(=O)NCCN2CCCCC2)[nH]1 [Example 70, N^4-{4-[(2-chloro-4-fluorobenzoyl)amino]phenyl}-2-ethyl-N^5-[2-(piperidin-1-yl)ethyl]-1H-imidazole-4,5-dicarboxamide] | 20 nM
CC(C)c1nc(C(=O)Nc2ccc(NC(=O)c3ccc(F)cc3Cl)cc2)c(C(=O)NCCN2CCCCC2)[nH]1 [Example 108, N^4-{4-[(2-chloro-4-fluorobenzoyl)amino]phenyl}-2-isopropyl-N^5-[2-(piperidin-1-yl)ethyl]-1H-imidazole-4,5-dicarboxamide] | 460 nM
O=C(Nc1ccc(NC(=O)c2[nH]cnc2C(=O)N2CC(F)C2)cc1)c1cc(F)c(F)cc1Cl [Example 47, N-{4-[(2-chloro-4,5-difluorobenzoyl)amino]phenyl}-4-[(3-fluoroazetidin-1-yl)carbonyl]-1H-imidazole-5-carboxamide] | > 500 nM
O=C(Nc1ccc(NC(=O)c2[nH]cnc2C(=O)N2CC(F)C2)cc1)c1ccc(F)cc1Cl [Example 41, N-{4-[(2-chloro-4-fluorobenzoyl)amino]phenyl}-4-[(3-fluoroazetidin-1-yl)carbonyl]-1H-imidazole-5-carboxamide] | > 500 nM
O=C(Nc1ccc(NC(=O)c2nc[nH]c2C(=O)N2CC3(COC3)C2)cc1)c1ccc(F)cc1Cl [Example 145, N-{4-[(2-chloro-4-fluorobenzoyl)amino]phenyl}-5-(2-oxa-6-azaspiro[3.3]hept-6-ylcarbonyl)-1H-imidazole-4-carboxamide] | > 500 nM
CN(C)CCNC(=O)c1nc[nH]c1C(=O)Nc1ccc(NC(=O)c2ccc(S(C)(=O)=O)cc2Cl)cc1 [Example 54, N^5-(4-{[2-chloro-4-(methylsulfonyl)benzoyl]amino}phenyl)-N^4-[2-(dimethylamino)ethyl]-1H-imidazole-4,5-dicarboxamide] | 20 nM
CCc1nc(C(=O)Nc2ccc(NC(=O)c3ccc(F)cc3Cl)cc2)c(C(=O)NCCN(C)C)[nH]1 [Example 69, N^4-{4-[(2-chloro-4-fluorobenzoyl)amino]phenyl}-N^5-[2-(dimethylamino)ethyl]-2-ethyl-1H-imidazole-4,5-dicarboxamide] | 50 nM
CCNC(=O)c1[nH]cnc1C(=O)Nc1ccc(NC(=O)c2ccc(F)cc2Cl)cc1 [Example 138, N^4-{4-[(2-chloro-4-fluorobenzoyl)amino]phenyl}-N^5-ethyl-1H-imidazole-4,5-dicarboxamide] | 260 nM
O=C(Nc1ccc(NC(=O)c2nc[nH]c2C(=O)NCCN2CCCC2)cc1)c1ccc(F)cc1Cl [Example 228, N^4-{4-[(2-chloro-4-fluorobenzoyl)amino]phenyl}-N^5-[2-(pyrrolidin-1-yl)ethyl]-1H-imidazole-4,5-dicarboxamide] | 20 nM
CC(C)(N)CNC(=O)c1ncoc1C(=O)Nc1ccc(NC(=O)c2ccc(F)cc2Cl)cc1 [Example 219, N^4-(2-amino-2-methylpropyl)-N^5-{4-[(2-chloro-4-fluorobenzoyl)amino]phenyl}-1,3-oxazole-4,5-dicarboxamide] | > 500 nM

Results, then the compound that gave them:

IC50 | Structure (SMILES)
30 nM | CC(C)NCCNC(=O)c1[nH]cnc1C(=O)Nc1ccc(NC(=O)c2ccc(F)cc2Cl)cc1 [Example 288, N^4-{4-[(2-chloro-4-fluorobenzoyl)amino]phenyl}-N^5-[2-(isopropylamino)ethyl]-1H-imidazole-4,5-dicarboxamide]
270 nM | O=C(Nc1ccc(NC(=O)c2nc[nH]c2C(=O)NCC2CCOC2)cc1)c1ccc(F)cc1Cl (stereo not drawn) [Example 235, N^4-{4-[(2-chloro-4-fluorobenzoyl)amino]phenyl}-N^5-(tetrahydrofuran-3-ylmethyl)-1H-imidazole-4,5-dicarboxamide]
60 nM | CC(C)(N)CNC(=O)c1[nH]cnc1C(=O)Nc1ccc(NC(=O)c2ccc(F)cc2Cl)cc1 [Example 280, N^5-(2-amino-2-methylpropyl)-N^4-{4-[(2-chloro-4-fluorobenzoyl)amino]phenyl}-1H-imidazole-4,5-dicarboxamide]
80 nM | CNCCNC(=O)c1[nH]cnc1C(=O)Nc1ccc(NC(=O)c2ccc(F)cc2Cl)cc1 [Example 287, N^4-{4-[(2-chloro-4-fluorobenzoyl)amino]phenyl}-N^5-[2-(methylamino)ethyl]-1H-imidazole-4,5-dicarboxamide]
480 nM | O=C(Nc1ccc(NC(=O)c2nc[nH]c2C(=O)NCC2CCOCC2)cc1)c1ccc(F)cc1Cl [Example 233, N^4-{4-[(2-chloro-4-fluorobenzoyl)amino]phenyl}-N^5-(tetrahydro-2H-pyran-4-ylmethyl)-1H-imidazole-4,5-dicarboxamide]
> 500 nM | CC(CN1CCOCC1)NC(=O)c1[nH]cnc1C(=O)Nc1ccc(NC(=O)c2ccc(F)cc2)cc1 (single isomer, unassigned; enantiomer 1) [Example 295, N^4-{4-[(4-fluorobenzoyl)amino]phenyl}-N^5-[1-(morpholin-4-yl)propan-2-yl]-1H-imidazole-4,5-dicarboxamide (enantiomer 1)]
6 nM | O=C(Nc1ccc(NC(=O)c2nc[nH]c2C(=O)NCCN2CCC[C@H](O)C2)cc1)c1ccc(F)cc1Cl [Example 271, N^4-{4-[(2-chloro-4-fluorobenzoyl)amino]phenyl}-N^5-{2-[(3S)-3-hydroxypiperidin-1-yl]ethyl}-1H-imidazole-4,5-dicarboxamide]
10 nM | CN1CCC(CNC(=O)c2nc[nH]c2C(=O)Nc2ccc(NC(=O)c3ccc(F)cc3Cl)cc2)C1 (stereo not drawn) [Example 407, N^5-{4-[(2-chloro-4-fluorobenzoyl)amino]phenyl}-N^4-[(1-methylpyrrolidin-3-yl)methyl]-1H-imidazole-4,5-dicarboxamide]
80 nM | CC(CN1CCOCC1)NC(=O)c1[nH]cnc1C(=O)Nc1ccc(NC(=O)c2ccc(F)cc2Cl)cc1 (single isomer, unassigned; enantiomer 1) [Example 269, N^4-{4-[(2-chloro-4-fluorobenzoyl)amino]phenyl}-N^5-[1-(morpholin-4-yl)propan-2-yl]-1H-imidazole-4,5-dicarboxamide (enantiomer 1)]
> 500 nM | CC(CN1CCOCC1)NC(=O)c1[nH]cnc1C(=O)Nc1ccc(NC(=O)c2ccc(F)cc2)cc1 (single isomer, unassigned; enantiomer 2) [Example 296, N^4-{4-[(4-fluorobenzoyl)amino]phenyl}-N^5-[1-(morpholin-4-yl)propan-2-yl]-1H-imidazole-4,5-dicarboxamide (enantiomer 2)]
70 nM | CC(C)(N)CCNC(=O)c1[nH]cnc1C(=O)Nc1ccc(NC(=O)c2ccc(F)cc2Cl)cc1 [Example 286, N^5-(3-amino-3-methylbutyl)-N^4-{4-[(2-chloro-4-fluorobenzoyl)amino]phenyl}-1H-imidazole-4,5-dicarboxamide]

test system: HEK293 FOP control reporter cell line; test: HEK293 FOP Assay (FOP control vector luciferase reporter); format: cell-based; conditions: Homo sapiens; HEK293 FOP control reporter cell line, 16 hours incubation, compound dilution series 50 μM to 15 nM
Outline: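 Stable HEK293 line carrying the FOP vector (randomized, non-functional TCF sites; Geneticin-selected) was run in parallel with the TOP line. Cells were plated 24 h ahead at 10000/well and given recombinant human Wnt-3a at 2500–5 ng/ml. Compounds were tested at 50 μM–15 nM (3.16-fold steps) in CAFTY buffer, pH 7.4, with 2 mM Ca2+ and 0.01% BSA.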

Structure (SMILES) | IC50
CNC(=O)c1[nH]c(C(C)C)nc1C(=O)Nc1ccc(NC(=O)c2ccc(F)cc2Cl)cc1 [Example 106, N^4-{4-[(2-chloro-4-fluorobenzoyl)amino]phenyl}-2-isopropyl-N^5-methyl-1H-imidazole-4,5-dicarboxamide] | 13000 nM
COC(=O)c1nc[nH]c1C(=O)Nc1ccc(NC(=O)c2ccccc2Cl)c(C)c1 [Example 86, methyl-5-({4-[(2-chlorobenzoyl)amino]-3-methylphenyl}carbamoyl)-1H-imidazole-4-carboxylate] | 23000 nM
